Results taken from patent publication US20120301551A1, “COMPOUNDS AND COMPOSITIONS FOR TREATING NEURONAL DEATH OR NEUROLOGICAL DYSFUNCTION” (Neurotech Pharmaceuticals Co., Ltd., priority 2005, published 2012).

Assays:
[1] = tested on: neuron-rich cortical cell cultures; assay: serum deprivation-induced neuronal cell apoptosis; format: cell-based, mouse; conditions: 24 hr, 5 mM Li^+, 100 μM zVADfmk, 1 μM 2-hydroxy TTBA
Description: (B) Neuron-rich cortical cell cultures (DIV 7) were deprived of serum, alone or with addition of 100 μM zVADfmk, 1 μM 2-hydroxy TTBA, or 5 mM Li^+. Neuronal death was analyzed 24 hr later by counting viable neurons excluding trypan (mean±SEM, n=4). *, Significant difference from the relevant control (serum deprivation alone), p<0.05 using ANOVA and Student-Neuman-Keuls test. (C) Western blot analysis of FADD antibody following immunoprecipitation with Fas antibody in the same samples above.
Additional experiments were performed to examine if targeting both neuronal cell necrosis and apoptosis would result in synergic neuroprotection in […] transgenic mice. […] Neuronal cell apoptosis was induced by serum deprivation in neuron-rich cortical cell cultures as reported, which was prevented by addition of 5 mM Li^+ as well as zVADfmk, a broad spectrum inhibitor of caspases (FIG. 5B). […] Additional experiments were performed to examine if Li^+ would prevent Fas signaling pathway. […] This implies that 2-Hydroxy-TTBA and Li^+ blocks oxidative neuronal cell necrosis and apoptosis, respectively.

[2] = tested on: Fas, FADD, cleaved caspase-8 and caspase-3; assay: Fas pathway in lumbar spinal cord of G93A transgenic mice (Western blot); conditions: at 12 weeks of age; 2-hydroxy-TTBA 30 mg/kg/d, Li^+ 200 mg/kg/d in the diet
Description: G93A transgenic mice received oral administration of 2-hydroxy-TTBA (30 mg/kg/d) in the diet from 8 weeks of age.

TNF-α = assay: LPS-induced TNF-α production in BV2 cells; format: cell-based; conditions: 100 uM; 1 ug/ml LPS, 4 hours
Description: Suppressing effects of chemical 01 in BV2 cell lines on production of IL-1β, IL-6 or TNF-α were evaluated. BV2 cells were exposed to 1 ug/ml LPS (inflammation-inducing material) with inclusion of chemical 01 at indicated doses. After 4 hours, supernatant were collected and concentrations of TNF-a were evaluated. In addition, BV2 cells were treated by the same method, and 24 hours later, supernatant were collected and concentrations of IL-1β and IL-6 were evaluated (mean±SEM, n=3). BV2 cells treated with LPS only were used as control.

[3] = tested on: APPswe/PS1deltaE9 double transgenic mice; assay: amyloid plaque burden in APPswe/PS1deltaE9 double transgenic mice (Thioflavin-S); format: in vivo, mouse
Description: The treatment with 25 mg/kg/day of chemical 01 for 7 months (from 3.5 to 10.5 month-old APP/PS1) caused a significant 53% reduction in amyloid plaque burden compared to APP/PS1 dementia mouse fed with general chow only.
10.5 month-old APPswe/PS1deltaE9 double transgenic mice were fed chow alone (saline only), or containing 25 mg/kg/day of chemical—01, for 7.5 months before being sacrificed (3˜10.5 month). 18-20 μm brain sections stained 1% Thioflavin-S for 5 min and observed under fluorescence microscope system.

beta-amyloid (Aβ42) = assay: suppression of beta-amyloid (Aβ42) production in CHO cells (ELISA); format: cell-based, Chinese hamster; conditions: Cricetulus griseus; CHO cells stably transfected with human wild APP695 and PS1ΔExon9; culture medium, ELISA; read-out: Aβ42 lowering effect (IC50)
Description: The suppressing effects of many drug candidates on production of beta-amyloid were evaluated in CHO cell line having the increased level of beta-amyloid. Results were shown as IC50 (uM) (Item C of Table 3 below).
In the Table 3, A, B and C mean neuron protecting effect against Fe^+2, suppressing effect on production of NO and suppressing effect on production of beta-amyloid, respectively. The term “ND” means “Not determined.”
Cells were treated with increasing concentrations of various chemicals in Chinese hamster ovary (CHO) cells stably transfected with human wild APP695 and the PS1ΔExon9, and analyzed Aβ42 levels in culture medium by colorimetric sandwich ELISA kit (BIOSOURCE, Camarillo, Calif.). In CHO cells, IC50 of Chemical—01-08 on Aβ42 lowering effect was 20-100 uM (Table 4).

[4] = tested on: reactive oxygen species (ROS) in cortical cell cultures; assay: ROS production in cortical cell cultures exposed to FeCl2 (DCF fluorescence); format: cell-based; conditions: 1 uM; 50 uM FeCl2
Description: It was evaluated whether chemical 01 suppresses reactive oxygen species (ROS) increased by FeCl2. Cortical cell cultures (DIV 11-14) were continuously exposed to 50 uM FeCl2 alone or with inclusion of 1 uM of chemical 01. Then, the fluorescent intensity of 6-carboxy-2′,7′-dichlorofluorescin diacetate (oxidation product of DCDHF-DA) was evaluated (mean±SEM, n=3).

Tg2576 transgenic mice = assay: elevated plus maze in Tg2576 transgenic mice; format: in vivo, mouse; conditions: 25 mg/kg/day for 5 months (9~14 months)
Description: 14 month-old Tg2576 transgenic mice were fed chow alone, or containing 25 mg/kg/day of chemical 01, for 5 months (9˜14 months). After administration of 5 months, Elevated plus maze test was performed to evaluate the behavior improvement. Elevated plus maze has two open arms (30 cm×6 cm×0.5 cm) and two closed arms (30 cm×6 cm×15 cm), and also has 6 cm×6 cm of center platform. In Elevated plus maze test, mouse was carefully laid in the center with the head of the mouse toward open arm. The time that the mouse spent in the open arm was recorded for 5 minutes (mean±SEM, n=2).
14 month-old Tg2576 transgenic mice were fed chow alone (saline only), or containing 25 mg/kg/day of chemical—01, for 5 months (9˜14 month).
The anxiety function was analyzed by elevated plus maze test. The time spent in the open arm was recorded in the elevated plus maze.

G93A mouse = assay: microglia number and activation in G93A mouse (TOMATO Lectin); format: in vivo; conditions: 5 mg/kg/day or 20 mg/kg/day; lumbar ventral horn
Description: Number and activation degree of microglia (a marker of inflammation in brain disease animal model) expressed in the lumbar ventral horn of G93A mouse were evaluated with TOMATO Lectin dye. In G93A mouse, number of microglia was increased and microglia was more activated compared to the wild type mouse. Treatment with 5 mg/kg/day or 20 mg/kg/day of chemical 01 decreased the increase of number and activation degree of microglia (FIG. 13F).

C57/BL6 mice = assay: microglia activation in MPTP mouse model of Parkinson's disease (CD11b); format: in vivo; conditions: 50 mg/kg intraperitoneal, MPTP 40 mg/kg s.c., two days
Description: MPTP (40 mg/kg) was subcutaneously injected into C57/BL6 mice (male/8 week-old). Some of the mice were administered with 50 mg/kg of chemical 01 through intraperitoneal injection 30 minutes before the injection of MPTP everyday. Two days later, brain tissue was extracted and immunostained with CD11b. After reaction, DAB (diaminobenzidine) was used for chromograph, and then the activation degree of microglia (a marker of inflammation in brain disease model) was evaluated with optical microscope (FIG. 14E).

| Compound | serum deprivation-induced neuronal cell apoptosis, effect in words [1] | serum deprivation-induced neuronal cell apoptosis, effect in words ([1]; listed as 2-hydroxy TTBA) | levels of Fas, FADD, cleaved caspase-8 and caspase-3 (Fas pathway) in lumbar spinal cord [2] | decrease of TNF-α released into media (TNF-α) [%] | reduction in amyloid plaque burden ([3]; 25 mg/kg/day for 7 months (from 3.5 to 10.5 month-old)) [%] | reduction in plaque burden ([3]; 25 mg/kg/day for 7.5 months (3~10.5 month)) [%] | reduction in amyloid plaque burden ([3]; 25 mg/kg/day, from 8.5 to 12.5 month-old (4 months)) [%] | IC50 (beta-amyloid (Aβ42)) [µM] | production of ROS in cell increased by FeCl2 [4] | time spent in the open arm (Tg2576 transgenic mice) | time spent in the open arm (Tg2576 transgenic mice; listed as chemical—01) | increase of number and activation degree of microglia (G93A mouse) | activity of microglia caused by MPTP (C57/BL6 mice) |
| --- | --- | --- | --- | --- | --- | --- | --- | --- | --- | --- | --- | --- | --- |
| O=C(O)c1cc(NCc2c(F)c(F)c(C(F)(F)F)c(F)c2F)ccc1O [2-Hydroxy-TTBA, 2-hydroxy-5-(2,3,5,6-tetrafluoro-4-trifluoromethyl-benzylamino)-benzoic acid] | not attenuated | not | slightly attenuated | – | – | – | – | – | – | – | – | – | – |
| O=C(O)c1cc(NCCc2ccc(C(F)(F)F)cc2)ccc1O [chemical 01, 2-Hydroxy-5-[2-(4-trifluoromethyl-phenyl)-ethylamino]-benzoic acid] | – | – | – | ~70 | 53 | 53.4 | 49.3 | 19.6 | suppressed | decreased the time | spent less time | decreased | decreased |
